Measurements taken from ChEMBL document CHEMBL1201862, “PubChem BioAssay data set” (2004).
Calls of active or inactive are those of the source.

Tests used:
CHO = CHO cell viability loss, potency – luminescence, cytotoxicity control for TLR9-MyD88 binding inhibitor project, dose response (AID 588339); format: functional, cell-based, hamster; conditions: Cricetulus griseus;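 further: CHO cells stably coexpressing TLR9 and MyD88 fusions from primary screen; compound exposure lasted 48 hours before viability readout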
[1] = target: T1, Sentrin-specific protease 8 (Homo sapiens, UniProt Q96LD8); format: functional
T1 sequence (Q96LD8 whole entry): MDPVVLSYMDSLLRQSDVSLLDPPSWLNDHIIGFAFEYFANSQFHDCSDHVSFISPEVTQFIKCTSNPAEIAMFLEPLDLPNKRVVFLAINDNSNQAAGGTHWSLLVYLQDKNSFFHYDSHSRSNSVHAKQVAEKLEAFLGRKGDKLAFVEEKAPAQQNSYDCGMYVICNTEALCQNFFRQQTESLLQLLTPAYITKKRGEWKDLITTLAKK

[2] = target: T1, Sentrin-specific protease 8; format: functional; remark: listed apart in the source
Beta Lactamase = Beta Lactamase (Pseudomonas aeruginosa, UniProt Q932Y6); assay: BLA reporter interference, concentration series – BLA reporter cells, FRET fluorescence, artefact control for TLR9-MyD88 binding inhibitor project, dose response (AID 588341); format: cell-based;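 further: cell based assay in CHO-K1 cells stably expressing beta-lactamase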
CAAX prenyl protease 2 = target: T2, CAAX prenyl protease 2 (Saccharomyces cerevisiae S288c, UniProt Q03530); assay: inhibition of Rce1p peptide cleavage – biochemical, plate reader, dry powder retest, dose response (AID 588851)
T2 sequence (Q03530 whole entry): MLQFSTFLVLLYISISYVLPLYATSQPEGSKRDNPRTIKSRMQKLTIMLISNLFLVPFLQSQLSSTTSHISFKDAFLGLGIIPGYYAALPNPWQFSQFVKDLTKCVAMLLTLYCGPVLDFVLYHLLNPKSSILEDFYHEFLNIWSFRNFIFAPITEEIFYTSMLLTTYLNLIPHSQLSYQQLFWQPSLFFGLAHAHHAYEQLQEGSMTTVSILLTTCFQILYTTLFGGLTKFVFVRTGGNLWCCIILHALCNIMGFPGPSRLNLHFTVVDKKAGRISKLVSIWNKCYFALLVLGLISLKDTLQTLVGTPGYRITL

[3] = target: T3, Sentrin-specific protease 6 (Homo sapiens, UniProt Q9GZR1); assay: inhibition of human SENP6 catalytic domain – biochemical, luminescence, set 2, SAR follow-up (AID 588598); format: functional
T3 sequence (Q9GZR1 whole entry): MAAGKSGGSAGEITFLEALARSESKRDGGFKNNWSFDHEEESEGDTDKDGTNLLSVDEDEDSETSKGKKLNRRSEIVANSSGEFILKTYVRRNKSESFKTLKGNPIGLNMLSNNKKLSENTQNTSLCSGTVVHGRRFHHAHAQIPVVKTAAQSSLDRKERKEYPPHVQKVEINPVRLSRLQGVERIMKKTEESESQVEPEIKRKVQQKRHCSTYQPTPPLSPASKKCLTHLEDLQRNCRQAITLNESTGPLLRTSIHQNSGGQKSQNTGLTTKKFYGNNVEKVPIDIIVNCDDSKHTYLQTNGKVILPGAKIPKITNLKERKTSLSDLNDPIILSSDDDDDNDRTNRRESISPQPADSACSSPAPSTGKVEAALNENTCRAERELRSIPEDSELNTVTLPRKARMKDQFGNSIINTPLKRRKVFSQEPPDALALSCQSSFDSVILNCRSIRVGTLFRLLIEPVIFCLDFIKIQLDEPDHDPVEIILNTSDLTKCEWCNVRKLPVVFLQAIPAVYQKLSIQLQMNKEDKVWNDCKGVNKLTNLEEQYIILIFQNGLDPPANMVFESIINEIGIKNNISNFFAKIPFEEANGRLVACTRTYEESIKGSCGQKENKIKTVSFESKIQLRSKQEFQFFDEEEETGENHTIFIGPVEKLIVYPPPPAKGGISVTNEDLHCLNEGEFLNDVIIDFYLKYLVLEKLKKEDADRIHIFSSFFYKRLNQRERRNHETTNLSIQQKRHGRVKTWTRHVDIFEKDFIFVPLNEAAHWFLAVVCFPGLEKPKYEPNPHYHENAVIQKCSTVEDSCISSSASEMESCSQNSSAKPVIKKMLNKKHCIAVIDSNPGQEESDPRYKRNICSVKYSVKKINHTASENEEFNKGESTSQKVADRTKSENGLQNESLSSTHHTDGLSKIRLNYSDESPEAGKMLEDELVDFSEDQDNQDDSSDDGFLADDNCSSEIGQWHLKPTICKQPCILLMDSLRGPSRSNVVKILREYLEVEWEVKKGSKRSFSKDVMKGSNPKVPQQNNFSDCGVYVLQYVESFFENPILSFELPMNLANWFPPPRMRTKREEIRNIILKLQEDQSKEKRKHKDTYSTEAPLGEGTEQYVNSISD

[4] = target: T4, Sentrin-specific protease 7 (Homo sapiens, UniProt Q9BQF6); assay: inhibition of human SENP7 cleavage activity – biochemical, luminescence, set 2, SAR follow-up (AID 588600); format: functional
T4 sequence (Q9BQF6 whole entry): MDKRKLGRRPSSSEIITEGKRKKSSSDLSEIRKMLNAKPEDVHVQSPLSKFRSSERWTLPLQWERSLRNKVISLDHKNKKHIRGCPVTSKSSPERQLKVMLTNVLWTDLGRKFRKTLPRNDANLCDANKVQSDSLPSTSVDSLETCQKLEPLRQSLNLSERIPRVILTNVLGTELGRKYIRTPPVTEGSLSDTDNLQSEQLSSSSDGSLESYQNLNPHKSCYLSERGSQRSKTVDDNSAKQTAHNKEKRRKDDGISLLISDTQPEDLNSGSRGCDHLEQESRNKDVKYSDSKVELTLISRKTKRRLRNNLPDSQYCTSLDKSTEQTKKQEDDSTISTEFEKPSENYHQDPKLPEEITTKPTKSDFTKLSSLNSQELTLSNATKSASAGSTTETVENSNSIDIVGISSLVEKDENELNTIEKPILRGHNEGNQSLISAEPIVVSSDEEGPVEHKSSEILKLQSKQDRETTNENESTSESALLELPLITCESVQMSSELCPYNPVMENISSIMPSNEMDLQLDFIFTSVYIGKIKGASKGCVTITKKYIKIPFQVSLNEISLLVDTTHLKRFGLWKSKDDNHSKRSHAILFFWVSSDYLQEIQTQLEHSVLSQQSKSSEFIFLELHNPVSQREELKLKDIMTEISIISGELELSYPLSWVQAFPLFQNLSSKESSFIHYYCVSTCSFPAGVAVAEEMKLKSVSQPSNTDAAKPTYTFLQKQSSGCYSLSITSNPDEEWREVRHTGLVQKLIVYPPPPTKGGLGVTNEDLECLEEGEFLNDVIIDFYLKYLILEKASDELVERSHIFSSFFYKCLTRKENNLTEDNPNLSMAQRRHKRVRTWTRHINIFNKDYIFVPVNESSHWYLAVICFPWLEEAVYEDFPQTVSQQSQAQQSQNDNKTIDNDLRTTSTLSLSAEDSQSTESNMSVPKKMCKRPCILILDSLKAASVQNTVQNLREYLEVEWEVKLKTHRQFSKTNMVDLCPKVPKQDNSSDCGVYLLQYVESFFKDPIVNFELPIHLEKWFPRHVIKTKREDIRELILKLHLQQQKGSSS

Caspase-3 = target: T5, Caspase-3 (Homo sapiens, UniProt P42574); assay: inhibition of recombinant caspase-3 activity – biochemical, luminescence, set 2, selectivity assay for SENP protease inhibitor project, SAR follow-up (AID 588599); format: functional
T5 sequence (P42574 whole entry): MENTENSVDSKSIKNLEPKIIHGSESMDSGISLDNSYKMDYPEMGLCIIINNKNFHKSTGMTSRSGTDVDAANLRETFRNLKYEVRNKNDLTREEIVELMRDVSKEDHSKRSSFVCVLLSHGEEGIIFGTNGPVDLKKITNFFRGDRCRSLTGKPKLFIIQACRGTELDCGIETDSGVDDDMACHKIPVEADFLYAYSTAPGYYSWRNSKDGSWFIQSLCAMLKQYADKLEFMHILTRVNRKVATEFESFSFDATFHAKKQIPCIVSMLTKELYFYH

[5] = target: T1, Sentrin-specific protease 8; assay: inhibition of sentrin protease 8 – biochemical, luminescence, set 2, SAR follow-up (AID 588601); format: functional

Sequence of Beta Lactamase (Q932Y6 whole entry): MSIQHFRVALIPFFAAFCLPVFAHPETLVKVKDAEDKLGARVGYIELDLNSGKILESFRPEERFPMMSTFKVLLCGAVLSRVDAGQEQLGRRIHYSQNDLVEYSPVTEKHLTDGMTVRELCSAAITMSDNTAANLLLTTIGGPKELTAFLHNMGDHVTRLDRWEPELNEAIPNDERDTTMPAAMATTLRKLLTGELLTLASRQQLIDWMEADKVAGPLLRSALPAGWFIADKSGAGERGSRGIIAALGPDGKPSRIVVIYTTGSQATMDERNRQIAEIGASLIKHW

## Cc1ccc(N2C(=O)Cc3ccccc3C2=O)cc1
CHO
  IC50: > 49.8 µM (inactive)
[1]
  IC50: > 100 µM (inactive)
[2]
  IC50: 3.36 µM (active)
Beta Lactamase
  IC50: 4.59 µM (active)

## CCCOc1ccc(-c2c(C(=O)N/N=C/c3cccs3)nnn2-c2nonc2N)cc1
CAAX prenyl protease 2
  AC50: 54.9 µM (active)

## CC(C)(C)C(=O)N1CCC(C(=O)Nc2nc3c(F)cc(F)cc3s2)CC1
[3]
  IC50: > 99 µM (inactive)
[4]
  IC50: > 99 µM (inactive)
Caspase-3
  IC50: > 99 µM (inactive)
[5]
  IC50: > 99 µM (inactive)
